Data on one compound can be found in US20070117182A1, “Nucleic acids conferring transcriptional responsiveness on the RANKL gene promoter and uses thereof” (Wisconsin Alumni Research Foundation, priority 2005, published 2007).

One assay deals with OPN promoter. As to the kind of experiment: ChIP of VDR/RXR at OPN promoter in ST2 cells. It counts as cell-based, mouse. Conditions: 10^-7 M, 6 hours. On the procedure:
FIG. 3. ChIP/chip analysis of the RANKL gene locus. A) ChIP: ST2 cells were treated with either vehicle or 1,25(OH)2D3 (10^−7 M) and after 6 hours subjected to ChIP using antibodies to VDR, RXR and IgG. Precipitated DNA was analyzed for the presence of either the Cyp24 or the OPN promoter. B) Arrangement of the mouse RANKL gene locus and position of flanking genes. RANKL gene is transcribed on the reverse strand (right to left). C) DNA chip: Precipitated DNA was linearly amplified and then subjected to chip analysis using tiled oligonucleotide arrays containing 50-mers spanning the RANKL gene locus as described in the text. Hybridization data derived from the arrays are indicated in log2 scale across the locus with nucleotide positions on chromosome 14 indicated on the X axis. The first set of two arrays provide linear data comparing IgG (±1,25(OH)2D3) and VDR (±1,25(OH)2D3) over the RANKL upstream regions. The second set of three arrays provides an expanded view of hybridization data comparing VDR (±1,25(OH)2D3), VDR (+1,25(OH)2D3 vs input DNA) and RXR (+1,25(OH)2D3 vs input DNA). VDR/RXR binding regions D1-D5 are tracked by the shading.
As a first step, the inventors treated ST2 cells with either vehicle or 1,25(OH)2D3 for 6 hours, fixed the cells with formalin, and then subjected the cell lysates to ChIP analysis using antibodies to VDR, RXR, and an IgG control. […]

In the next assay the test system is D5 fragment in MC-3T3-E1. As to the kind of experiment: pRL-D5/TK-luc reporter in MC-3T3-E1 cells. It counts as cell-based. Conditions: osteoblast mouse cell line MC-3T3-E1, which does not produce RANKL.
Assay [1] deals with human D5 region (TK-hRLD5). As to the kind of experiment: TK-hRLD5 luciferase reporter in MG-63 cells. The format is cell-based. Conditions: 24 hours. On the procedure: FIG. 14. […] Cells were treated with the indicated inducers for the periods identified and isolated RNA subjected to PCR analysis for Cyp24, RANKL and b-actin. […] Two different primer sets to the human D5 region were used to assess VDR binding. […] Luciferase activity was analysed 24 hours later. […] Data are the average of triplicate determinations, SEM.
Approximately 1000 bp of the human RANKL gene comprising D5 was cloned and inserted into a TK-luciferase expression vector (TK-hRLD5). […] The D5 RL region and an additional region immediately upstream in both the mouse and human genes contain elements that mediate the actions of parathyroid hormone, a variety of prostaglandins, cytokines such as oncostatin M and IL-6, as well as IL-1 and others.
A general note: In a reporter assay the amount or activity of a reporter protein is the signal.

Assay [2] deals with mouse D5 region (TK-mRLD5). Kind of assay: TK-mRLD5 luciferase reporter in MG-63 cells. It counts as cell-based. The following applies: 24 hours.
In assay [3] the test system is D5 region of the RANKL gene (RL-CCL). Kind of assay: pTK-RL(D5) luciferase reporter in ST2 cells. It counts as cell-based, mouse. The following applies: 24 hours, agent alone. On the procedure: FIG. 6. Transcriptional activity of the D5 regions of the RANKL gene in the context of the TK promoter. Sequence surrounding the D5 region (1072 bp) was cloned into the pTK-luciferase vector and termed pTK-RL(D5). […] Cells were harvested after 24 hours and luciferase activity assessed. B) ST2 cells were transfected as in A above but without the VDR expression vector and evaluated as in A. C) COS-7 cells were transfected and evaluated as in A above. Luciferase was normalized using beta-gal activity. Data represent the mean of triplicate determinations (SEM). The pTK-luc control vector was unresponsive to any of the inducers (see FIG. 9). *, p<0.05 vs no treatment control.
FIG. 11. […] A) Coordinates of the RL-D5 and the RL-D5b regions in the mouse RANKL upstream region. ST2 cells were transfected with either B) pTK-luc or pTK-mRL-D5 or C) pTK-luc and pTK-mRL-D5b and then treated with the indicated inducers. Cells were harvested after 24 hours and evaluated for luciferase activity. Luciferase was normalized using β-gal activity. Data represent the mean of triplicate determinations (SEM). *, p<0.05 vs no treatment control. **, p<0.05 vs no treatment and 1,25(OH)2D3 treated controls.
The activity of an enhancer must be evaluated in the context of its local environment, preferentially in the context of both other enhancers and its native promoter. In the case of the RANKL gene, however, this is clearly not possible due to the numbers and the distant locations of the potential regulatory regions. To tackle this problem, the inventors isolated approximately 800 to 1100 bp fragments of each region (D1 to D5) as identified through the ChIP/Chip analysis, cloned each into a luciferase expression vector under the control of a viral thymidine kinase (TK) minimal promoter, and explored the 1,25(OH)2D3- and GC-inducible activity of each following transfection into ST2 cells. […] Nevertheless, positive results provide added support for the potential regulatory capabilities of an individual DNA fragment even when examined in isolation. […] This induction was magnified by the addition of a VDR expression vector (FIG. 6a), but was also evident in the absence of such addition (FIG. 6b). […] To ensure that the viral TK promoter background was not contributing to our evaluation, the inventors cloned the mouse RANKL promoter (−100 to +65) into pGL3, inserted RL D5 and evaluated its activity in ST2 cells as well.
Based upon the above data, the inventors explored the possibility that similar to 1,25(OH)2D3, forskolin, PGE2 and OSM might be capable of activating transcription via the D5 fragment of the RANKL gene. […] Cells were harvested 24 hours later and evaluated for luciferase activity as in the previous experiments. […]

Regarding `C=C1/C(=C\C=C2/CCC[C@]3(C)[C@@H]([C@H](C)CCCC(C)(C)O)CC[C@@H]23)C[C@@H](O)C[C@@H]1O` [1,25(OH)2D3], the “abundance of OPN promoter DNA precipitated with VDR and RXR antibodies” value with OPN promoter was “clearly increased the abundance of DNA”. Also, the “stimulation via the D5 fragment in MC-3T3-E1” value in the assay with D5 fragment in MC-3T3-E1 is “failed to stimulate”. In addition, the “activity of human D5 region” value in assay [1] was “induces”. For the same compound, in assay [2], the “activity of mouse D5 region” value was “induces”. For the same compound, in assay [3], the “luciferase activity via D5 (RL-CCL), TK promoter” value was “typical and rather striking dose response”.
